{
  "source": "patent US20190023743A1",
  "about": "“METHODS AND COMPOSITIONS FOR MODULATING DRUG-POLYMER ARCHITECTURE, PHARMACOKINETICS AND BIODISTRIBUTION” (priority 2007, published 2019)",
  "key": {"[1]": {"tested_on": "C26 colon carcinoma tumor", "test": "Survival of tumor-bearing mice, C26 colon carcinoma", "type": "in vivo, Balb/C mice", "conditions": "free doxorubicin 12.5, micelle 25 mg drug/kg body weight, sacrificed after >15% body weight loss, Kaplan Meier analysis", "protocol": "Eight days after subcutaneous implantation of C26 colon carcinoma tumor cells, Balb/C mice were randomized and treated. The mice were systemically administered either a PBS control or does of approximately equal toxicity of free doxorubicin at 12.5 mg drug/kg body weight or 25 mg drug/kg body weight micelle doxorubicin-ELP. Mice were sacrificed after losing >15% of their body weight due to tumor burden. The treatment groups were blinded during measurement.\nThe data shown in FIG. 13 were determined as follows: Eight days after subcutaneous implantation of C26 colon carcinoma tumor cells, Balb/C mice were randomized and treated. […] The mice were sacrificed after losing >15% of their body weight due to tumor burden. The treatment groups were blinded during measurement."}, "[2]": {"conditions": "4 days post administration; free doxorubicin 12.5, micelle 25, unimer 6.3 mg drug/kg body weight; Balb/C mice bearing C26 tumors", "quoted_text": "Animals dosed near the maximum tolerated amount of doxorubicin lose body weight, and weight loss 4 days post doxorubicin administration is used in this experiment as a gross indicator of toxicity. Balb/C mice bearing C26 colon carcinoma tumors were systemically administered PBS, free doxorubicin, micelle doxorubicin-ELP, or unimer doxorubicin-ELP at 0, 12.5, 25, and 6.3 mg drug/kg body weight respectively. […] Error bars indicate the standard deviation (n=5).\nThe toxicity of doxorubicin-ELP was estimated by body weight loss. Animals that were dosed near the maximum tolerated amount of free doxorubicin, micelle doxorubicin-ELP or unimer doxorubicin-ELP lost body weight, and the weight observed 4 days after the injection of the doxorubicin composition was taken as a gross indicator of toxicity. Balb/C mice bearing C26 colon carcinoma tumors were systemically administered either PBS as a control or free doxorubicin, micelle doxorubicin-ELP, or unimer doxorubicin-ELP at 12.5, 25, and 6.3 mg drug/kg body weight, respectively. […] Error bars indicate the standard deviation (n=5)."}},
  "data": [
    {"smiles": "COc1cccc2c1C(=O)c1c(O)c3c(c(O)c1C2=O)C[C@@](O)(C(=O)CO)C[C@@H]3O[C@H]1C[C@H](N)[C@H](O)[C@H](C)O1", "note": "[free doxorubicin, doxorubicin]", "values": [
      {"measurement": "survival time", "setting": "[1]", "result": "did not significantly effect survival time"},
      {"measurement": "survival time", "setting": "[1]; listed as Free doxorubicin", "result": "did not have any significant effect on survival"},
      {"measurement": "toxicity estimated by body weight loss", "setting": "[2]", "result": "approximately equally toxic"}
    ]}
  ]
}
